Like-named read-outs stand apart in the source and are kept apart here. Where a SMILES comes first, the peptide text is derived from it. [ ]: non-standard residue; d: D form. dPhe(4-Cl) = N[C@H](Cc1ccc(Cl)cc1)C(=O)O; Nle = CCCC[C@H](N)C(=O)O
Assay: Pharmacokinetics in rats after intravenous bolus injection (systemic clearance)
Type: in vivo
Conditions: rat, plasma, adult male Sprague-Dawley rats, i.v. bolus, read-out: CL (ml/kg/min) Average
Description: Pharmacokinetic (PK) parameters of illustrative agonists of the GLP-2 receptor were determined in adult male Sprague-Dawley rats post intravenous bolus injection of compounds at doses of 0.1-1.0 mg/kg. Three or four doubly cannulated animals per compound were dosed via jugular vein, blood samples were collected at several intervals via carotid artery, and plasma samples were prepared from whole blood using K2EDTA as anticoagulant. Subsequent bioanalysis of samples included compound extraction and plasma concentration determination using standard LC/MS/MS methods. Analyte concentration was calculated from internal standard normalized peak area and calibration curves.
For calculation of PK parameters the compound concentration-time curves were analyzed with the noncompartmental data analysis software package PK Solutions 2.0™ (Summit Research Services, Montrose Colo.). The systemic clearance per kg body weight (CL) was calculated as the dose per kg body weight divided by the AUC extrapolated to infinity based on trapezoid calculation (AUC∞). Values reported are the arithmetic mean and standard deviation from the number of animals used for each compound as indicated on Table 3.

[1] = 0.2 mg FB/kg, dose 0.20 mg FB/kg

| clearance [1] | clearance (dose 0.18 mg FB/kg) | Compound |
| --- | --- | --- |
| 0.51 mL/kg/min |  | CCCC[C@H](NC(=O)[C@H](CCC(=O)O)NC(=O)[C@H](CC(=O)O)NC(=O)[C@H](CO)NC(=O)[C@H](Cc1ccccc1)NC(=O)[C@H](CO)NC(=O)CNC(=O)[C@H](CC(=O)O)NC(=O)CNC(=O)[C@@H](N)Cc1cnc[nH]1)C(=O)N[C@H](Cc1ccc(Cl)cc1)C(=O)N[C@H](C(=O)N[C@H](C(=O)N[C@@H](CC(C)C)C(=O)N[C@@H](CC(=O)O)C(=O)N[C@@H](CC(N)=O)C(=O)N[C@@H](CC(C)C)C(=O)N[C@@H](C)C(=O)N[C@@H](C)C(=O)N[C@@H](CCCNC(=N)N)C(=O)N[C@@H](CC(=O)O)C(=O)N[C@@H](Cc1ccccc1)C(=O)N[C@H](C(=O)N[C@@H](CC(N)=O)C(=O)N[C@@H](Cc1c[nH]c2ccccc12)C(=O)N[C@@H](CC(C)C)C(=O)N[C@H](C(=O)N[C@@H](CCC(N)=O)C(=O)N[C@H](C(=O)N[C@@H](CCCCN)C(N)=O)[C@@H](C)O)[C@@H](C)CC)[C@@H](C)CC)[C@@H](C)CC)[C@@H](C)O [Compound 29, [Gly2,Nle10,D-Cpa11] hGLP-2 (1-30)-NH2] (H-HGDGSFSDE[Nle][dPhe(4-Cl)]TILDNLAARDFINWLIQTK-NH2) |
| 1.2 mL/kg/min |  | CCCC[C@H](NC(=O)[C@H](CCC(=O)O)NC(=O)[C@H](CC(=O)O)NC(=O)[C@H](CO)NC(=O)[C@H](Cc1ccccc1)NC(=O)[C@H](CO)NC(=O)CNC(=O)[C@H](CC(=O)O)NC(=O)CNC(=O)[C@@H](N)Cc1c[nH]cn1)C(=O)N[C@H](Cc1c[nH]c2ccccc12)C(=O)N[C@H](C(=O)N[C@H](C(=O)N[C@@H](CC(C)C)C(=O)N[C@@H](CC(=O)O)C(=O)N[C@@H](CC(N)=O)C(=O)N[C@@H](CC(C)C)C(=O)N[C@@H](C)C(=O)N[C@@H](C)C(=O)N[C@@H](CCCNC(=N)N)C(=O)N[C@@H](CC(=O)O)C(=O)N[C@@H](Cc1ccccc1)C(=O)N[C@H](C(=O)N[C@@H](CC(N)=O)C(=O)N[C@@H](Cc1c[nH]c2ccccc12)C(=O)N[C@@H](CC(C)C)C(=O)N[C@H](C(=O)N[C@@H](CCC(N)=O)C(=O)N[C@H](C(=O)N[C@@H](CCCCN)C(N)=O)[C@@H](C)O)[C@@H](C)CC)[C@@H](C)CC)[C@@H](C)CC)[C@@H](C)O [Compound 30, [Gly2,Nle10,D-Trp11] hGLP-2 (1-30)-NH2] (H-HGDGSFSDE[Nle][dW]TILDNLAARDFINWLIQTK-NH2) |
|  | 5.6 mL/kg/min | CCCC[C@H](NC(=O)[C@H](CCC(=O)O)NC(=O)[C@H](CC(=O)O)NC(=O)[C@H](CO)NC(=O)[C@H](Cc1ccccc1)NC(=O)[C@H](CO)NC(=O)CNC(=O)[C@H](CC(=O)O)NC(=O)CNC(=O)[C@@H](N)Cc1c[nH]cn1)C(=O)N[C@H](C(=O)N[C@H](C(=O)N[C@H](C(=O)N[C@@H](CC(C)C)C(=O)N[C@@H](CC(=O)O)C(=O)N[C@@H](CC(N)=O)C(=O)N[C@@H](CC(C)C)C(=O)N[C@@H](C)C(=O)N[C@@H](C)C(=O)N[C@@H](CCCNC(=N)N)C(=O)N[C@@H](CC(=O)O)C(=O)N[C@@H](Cc1ccccc1)C(=O)N[C@H](C(=O)N[C@@H](CC(N)=O)C(=O)N[C@@H](Cc1c[nH]c2ccccc12)C(=O)N[C@@H](CC(C)C)C(=O)N[C@H](C(=O)N[C@@H](CCC(N)=O)C(=O)N[C@H](C(=O)N[C@@H](CCCCN)C(N)=O)[C@@H](C)O)[C@@H](C)CC)[C@@H](C)CC)[C@@H](C)CC)[C@@H](C)O)[C@@H](C)CC [Compound 31, [Gly2,Nle10,Ile11] hGLP-2 (1-30)-NH2] (H-HGDGSFSDE[Nle]ITILDNLAARDFINWLIQTK-NH2) |

— patent publication US8580918B2, “Peptidic GLP-2 agonists” (Ferring B.V., priority 2009, dated 2013)
